Data from paper PMC6253839, “Screening of Agelasine D and Analogs for Inhibitory Activity against Pathogenic Protozoa; Identification of Hits for Visceral Leishmaniasis and Chagas Disease” (Molecules, 2009).
≈ marks a conversion by molar mass, not a printed value. Entries after “also recorded” stand apart in the source; their conditions may differ. Like-named read-outs stand apart in the source and are kept apart here.

What was measured:
[1] = tested on: T. cruzi Tulahuen CL2 strain (nifurtimox-sensitive); experiment: Antitrypanosomal activity, T. cruzi on MRC-5 cells, β-galactosidase readout; assay type: cell-based, Trypanosoma cruzi; conditions: for IC50: Trypanosoma cruzi, TULAHUEN
Experimental: To determine in vitro anti-trypanosomal activity, 4×10^3 MRC-5 cells and 4×10^4 parasites were added to each well of test plate with compound. […] The color reaction was read at 540 nm and absorbance values were expressed as a percentage of the blank controls.

[2] = tested on: P. falciparum GHA-strain (chloroquine-suceptible); experiment: Antiplasmodial activity, Malstat method; assay type: cell-based, Plasmodium falciparum; conditions: for IC50: Plasmodium falciparum, read-out: P. falciparum IC50
[3] = Cytotoxicity assay, resazurin; assay type: cell-based; conditions: human
Experimental: Cell viability was determined after addition of resazurin.

[4] = tested on: Leishmania infantum amastigotes (MHOM/ET 67); experiment: Antileishmanial activity, amastigotes in primary peritoneal mouse macrophages; assay type: cell-based; conditions: for IC50: Leishmania infantum, Macrophage, 120 h, read-out: L. infantum IC50; for hit for leishmaniasis according to TDR: criterion IC50 <0.5 μg/mL and SI >20
Experimental: Leishmania infantum amastigotes (MHOM/ET 67) were collected from an infected donor hamster and used to infect primary peritoneal mouse macrophages. To determine in vitro antileishmanial activity, 3×10^4 macrophages were seeded in each well of a 96-well plate. After 48 h outgrowth, 5×10^4 amastigotes/well were added and incubated for 2 h at 37 °C. […] Parasite burdens were determined microscopically after Giemsa staining and expressed as a percentage of the blank controls without compound.

[5] = tested on: Mycobacterium tuberculosis; conditions: cited from earlier work
Staphyllococcus aureus = tested on: Staphyllococcus aureus; design: method as in PMID 17442577; conditions: previous studies; cited from earlier work
Escherichia coli = tested on: Escherichia coli; design: method as in PMID 17442577; conditions: previous studies; cited from earlier work
[6] = MRC-5 SV2 cells (human fetal lung fibroblasts)
[7] = GHA-strain, 72 h, TDR hit criterion <0.2 μg/mL
[8] = intracellular amastigotes, TDR hit criterion <0.5 μg/mL
[9] = MRC5, 168 h, read-out: T. cruzi IC50

Compound	IC50 at 72 h [3, 6] [µg/mL]	IC50 [2, 7] [µg/mL]	IC50 [4, 8] [µg/mL]	IC50 [1, 9] [µg/mL]	other results
O=C(Cn1ccnc1[N+](=O)[O-])NCc1ccccc1 [Benznidazole, reference compound]	–	–	–	–	IC50 ([1]; MRC5, as printed in running text and table footnote, read-out: T. cruzi IC50): 0.25 µg/mL (≈ 0.961 µM)
CCN(CC)CCCC(C)Nc1ccnc2cc(Cl)ccc12 (centres unmarked) [Chloroquine, reference compound]	–	–	–	–	IC50 ([2]; 72 h): 0.04 µg/mL
CO/N=c1\[n-]cnc2c1n(C/C=C(\C)CCC=C(C)C)c[n+]2C [Compound 1a]	0.86 (≈ 2.73 µM)	0.46	7.5 (≈ 23.8 µM)	< 0.079	–
CO/N=c1\[n-]cnc2c1[n+](C/C=C(\C)CC/C=C(\C)CCC=C(C)C)cn2C [Compound 1b]	0.35 (≈ 0.913 µM)	0.63	0.77 (≈ 2.01 µM)	< 0.096	–
CC(C)=CCC/C(C)=C\CC/C(C)=C/C[n+]1cn(C)c2nc[n-]/c(=N\OCc3ccccc3)c21 [Compound 1c]	0.31 (≈ 0.674 µM)	0.74	0.99 (≈ 2.15 µM)	< 0.11	–
CO/N=c1\[n-]cnc2c1[n+](C/C=C(\C)CC/C=C(\C)CC/C=C(\C)CCC=C(C)C)cn2C [Compound 1d]	2 (≈ 4.43 µM)	0.1	0.093 (≈ 0.206 µM)	0.11 (≈ 0.244 µM)	antibacterial activity against M. tuberculosis, in words ([5]; previously shown): inhibition of Mycobacterium tuberculosis; antimalaria hit according to TDR ([2]; criterion IC50 <0.2 μg/mL with SI >20): met this requirement; hit for leishmaniasis according to TDR [4]: meets the definition of a hit; also recorded: identified as hits; IC50 ([1]; MRC5, read-out: T. cruzi IC50): < 1 µg/mL
CC(C)=CCC/C(C)=C/CC/C(C)=C/CC/C(C)=C/C[n+]1cn(C)c2nc[n-]/c(=N\OCc3ccccc3)c21 [Compound 1e]	3.2 (≈ 6.06 µM)	4.2	5.4 (≈ 10.2 µM)	1.4 (≈ 2.65 µM)	–
CC(C)=CCC/C(C)=C/CC/C(C)=C/CC/C(C)=C/C[n+]1cn(C)c2nc[n-]/c(=N\OC(C)(C)C)c21 [Compound 1f]	0.26 (≈ 0.527 µM)	0.26	0.27 (≈ 0.547 µM)	< 0.12	activity against L. infantum, in words [4]: potent inhibitors
CO/N=c1\[n-]cnc2c1[n+](C/C=C(\C)CC/C=C(\C)CC/C=C(\C)CCC=C(C)C)cn2CCC#N [Compound 1g]	0.49 (≈ 0.999 µM)	5.3	12 (≈ 24.5 µM)	0.81 (≈ 1.65 µM)	–
CC(C)=CCC/C(C)=C/CC/C(C)=C/CC/C(C)=C/C[n+]1cn(CCC#N)c2nc[n-]/c(=N\OCc3ccccc3)c21 [Compound 1h]	3.5 (≈ 6.18 µM)	10	18 (≈ 31.8 µM)	3 (≈ 5.29 µM)	–
CO/N=c1\[n-]cnc2c1[n+](C/C=C(\C)CC/C=C(\C)CC/C=C(\C)CCC=C(C)C)cn2C(c1ccccc1)c1ccccc1 [Compound 1i]	0.92 (≈ 1.52 µM)	3.5	1.2 (≈ 1.99 µM)	1.3 (≈ 2.15 µM)	–
CO/N=c1\[n-]cnc2c1[n+](C/C=C(\C)CCCC(C)CCCC(C)CCCC(C)C)cn2C (centres unmarked) [Compound 1j]	0.21 (≈ 0.459 µM)	0.3	0.23 (≈ 0.503 µM)	< 0.11	activity against L. infantum, in words [4]: potent inhibitors
CC1=C(CC/C(C)=C/CC/C(C)=C/C[n+]2cn(C)c3nc[n-]/c(=N\OCc4ccccc4)c32)C(C)(C)CCC1 [Compound 1l]	0.53 (≈ 1 µM)	1.3	12 (≈ 22.7 µM)	0.14 (≈ 0.265 µM)	–
CC1=C(CC/C(C)=C/CC/C(C)=C/C[n+]2cn(C)c3nc[n-]/c(=N\OC(C)(C)C)c32)C(C)(C)CCC1 [Compound 1m]	0.48 (≈ 0.972 µM)	0.69	0.99 (≈ 2.01 µM)	< 0.12	–
C=C1CC[C@H]2C(C)(C)CCC[C@]2(C)[C@H]1CC/C(C)=C/Cn1c[n+](C)c2nc[n-]/c(=N\OC)c21 [Compound 1n]	4.5 (≈ 9.96 µM)	0.29	0.63 (≈ 1.39 µM)	0.49 (≈ 1.08 µM)	–
C=C1CC[C@H]2C(C)(C)CCC[C@]2(C)[C@H]1CC/C(C)=C/Cn1c[n+](C)c2nc[n-]/c(=N\OC(C)(C)C)c21 [Compound 1o]	0.45 (≈ 0.911 µM)	0.94	4 (≈ 8.1 µM)	< 0.12	–
CC(C)=CCC/C(C)=C\CC/C(C)=C/C[n+]1cn(C)c2ncnc(N)c21 [Compound 2a]	> 26	2.9	> 26	0.43	antibacterial activity against M. tuberculosis, in words ([5]; previous studies): virtually inactive; hit for Chagas disease according to TDR [1]: classified as hits; also recorded: identified as hits; antibacterial activity against S. aureus, in words (Staphyllococcus aureus): virtually inactive; antibacterial activity against E. coli, in words (Escherichia coli): virtually inactive
C/C(=C\C[n+]1cn(C)c2ncnc(N)c21)CCCC(C)CCCC(C)CCCC(C)C (centres unmarked) [Compound 2b]	–	–	–	< 0.12	IC50 at 72 h ([3]; read-out: MRC-5 IC50): 0.75 µg/mL; IC50 ([2]; 72 h): 0.96 µg/mL; IC50 [4]: 2.9 µg/mL
C=C1CC[C@@H]2C(C)(C)CCC[C@@]2(C)[C@@H]1CC/C(C)=C/Cn1c[n+](C)c2ncnc(N)c21 [Compound 2c, agelasine D]	–	0.29	1.5	4.5	IC50 at 72 h ([3]; read-out: MRC-5 IC50): 6.7 µg/mL; IC50 ([2]; same value as 0.29 μg/mL, in μM): 0.63 µM
CC(C)=CCC/C(C)=C/CC/C(C)=C/CC/C(C)=C/Cn1cnc2c(N)ncnc21 [Compound 3f, 9-Geranylgeranyladenine]	2.7 (≈ 6.62 µM)	> 29	> 29	0.77 (≈ 1.89 µM)	IC50 ([1]; MRC5, read-out: T. cruzi IC50): < 1 µg/mL
CC(C)=CCC/C(C)=C/CC/C(C)=C/CC/C(C)=C/Cn1cnc2ncnc(N)c21 [Compound 4a]	2.6 (≈ 6.38 µM)	9.4	> 26	2.3 (≈ 5.64 µM)	–
CONc1ncnc2ncn(C/C=C(\C)CC/C=C(\C)CC/C=C(\C)CCC=C(C)C)c12 [Compound 4b]	2.1 (≈ 4.8 µM)	> 28	> 28	0.28 (≈ 0.64 µM)	–
CC(C)=CCC/C(C)=C/CC/C(C)=C/CC/C(C)=C/Cn1cnc2ncnc(NOCc3ccccc3)c21 [Compound 4c]	1.5 (≈ 2.92 µM)	25	> 33	1.5 (≈ 2.92 µM)	–
CC(C)=CCC/C(C)=C/CC/C(C)=C/CC/C(C)=C/Cn1cc[n+](C)c1 [Compound 5]	7.6	0.97	< 0.11	< 0.11	antibacterial activity against M. tuberculosis, in words ([5]; previous studies): not against; hit for leishmaniasis according to TDR [4]: classifies as a hit; also recorded: identified as hits; hit for Chagas disease according to TDR [1]: classified as hits; also recorded: identified as hits; antibacterial activity against S. aureus, in words (Staphyllococcus aureus): reasonably active; antibacterial activity against E. coli, in words (Escherichia coli): not against
CC(C)=CCC/C(C)=C/CC/C(C)=C/CC/C(C)=C/Cn1c[n+](C)c2ccccc21 [Compound 6]	2	1	2.5	< 0.12	–
CC(C)=CCC/C(C)=C/CC/C(C)=C/CC/C(C)=C/C[n+]1cnc2c(ncn2C)c1N [Compound 7]	16	10	> 32	11	–
CC(C)=CCC/C(C)=C/CC/C(C)=C/CC/C(C)=C/Cn1cnc2c1c(=N)ncn2C [Compound 8]	2.3 (≈ 5.45 µM)	3.37	13 (≈ 30.8 µM)	0.19 (≈ 0.451 µM)	–
CC1=C(CC/C(C)=C/CC/C(C)=C/Cn2cnc3c2C(=N)N(C)CN3C)C(C)(C)CCC1 [Compound 9]	> 28	> 28	> 28	3.2 (≈ 7.31 µM)	IC50 ([1]; MRC5, read-out: T. cruzi IC50): < 1 µg/mL
CCCCCCCCCCCCCCCCOP(=O)([O-])OCC[N+](C)(C)C [Miltefosine, reference compound]	–	–	0.24 (≈ 0.589 µM)	–	–
